Measured values published in patent US9428819B1, “Method for synthesizing noble metal nanoparticles using dead cancer cells” (KING SAUD UNIVERSITY, priority 2016, dated 2016).

What was measured:
Assay in all cases: Antimicrobial activity, diffusion Agar technique
Type in all cases: cell-based
Details in all cases: beyond the initial well diameter of 6 mm
[1] = test system: Bacillis subtilis (RCMB 010068)
Protocol: (§1) The noble metal nanoparticles prepared by the present methods can be formulated into a composition effective as an antifungal and as an antibacterial agent (Gram positive and gram negative). […] The fungal and bacterial inhibition trial was conducted using the diffusion Agar technique. The data are expressed in the form of (M±S.D.): mean±standard deviation; wherein M represents the diameter of the inhibition zone, measured in millimeters (mm) beyond the initial well diameter of 6 mm.

[2] = test system: Streptococcus pneumoniae (RCMB 010011)
Protocol: as §1

[3] = test system: Aspergillus fumigatus (RCMB 02567)
Protocol: as §1

[4] = test system: Escherichia coli (RCMB 010054)
Protocol: as §1

Compound: CC1(C)S[C@@H]2[C@H](NC(=O)[C@H](N)c3ccccc3)C(=O)N2[C@H]1C(=O)O [Ampicillin]
- diameter of the inhibition zone (mean ± S.D.) [1]: 31.3 ± 1.5 mm
- diameter of the inhibition zone (mean ± S.D.) [2]: 21.0 ± 1.0 mm

Compound: C[C@@H]1[C@H](O)[C@@H](C)/C=C/C=C/C=C/C=C/C=C/C=C/C=C/[C@H](O[C@@H]2O[C@H](C)[C@@H](O)[C@H](N)[C@@H]2O)C[C@@H]2O[C@](O)(C[C@@H](O)C[C@@H](O)[C@H](O)CC[C@@H](O)C[C@@H](O)CC(=O)O[C@H]1C)C[C@H](O)[C@H]2C(=O)O [Amphotericin B]
- diameter of the inhibition zone (mean ± S.D.) [3]: 21.7 ± 1.5 mm

Compound: Gentamicin
- diameter of the inhibition zone (mean ± S.D.) [4]: 20.3 ± 0.58 mm
